Experimental findings from BindingDB's records for doi:10.7270/Q2H70D7S (Burnham Center For Chemical Genomics, 2010) are described below.

pIC50: −log10 of the molar value.

The experiment deals with Kappa-type opioid receptor (Homo sapiens, UniProt P41145). Description: kappa opioid receptor blockers, cell-based, luminescence, beta-arrestin, SAR follow-up (AID 2285).
Sequence of Kappa-type opioid receptor (P41145 whole entry): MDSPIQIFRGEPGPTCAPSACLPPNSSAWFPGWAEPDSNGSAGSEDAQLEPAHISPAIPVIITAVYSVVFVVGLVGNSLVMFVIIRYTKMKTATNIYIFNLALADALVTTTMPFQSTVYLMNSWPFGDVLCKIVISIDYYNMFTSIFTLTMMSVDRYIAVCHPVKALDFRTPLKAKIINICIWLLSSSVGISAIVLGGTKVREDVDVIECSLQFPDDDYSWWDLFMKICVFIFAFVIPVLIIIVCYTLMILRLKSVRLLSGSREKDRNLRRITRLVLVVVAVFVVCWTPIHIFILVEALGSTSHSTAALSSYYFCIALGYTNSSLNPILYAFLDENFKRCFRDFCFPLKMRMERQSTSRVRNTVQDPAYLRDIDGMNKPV

`CCC(N=Nc1ccnc2cc(Cl)ccc12)c1ccc(O)cc1` (configuration not stated) [4-[1-[2-(7-chloroquinolin-4-yl)hydrazinyl]propylidene]cyclohexa-2,5-dien-1-one]: the negative logarithm of the IC50 (pIC50) is 5.45. Under `Oc1ccc(CN=Nc2ccnc3cc(Cl)ccc23)cc1O` [(4Z)-4-[[2-(7-chloroquinolin-4-yl)hydrazinyl]methylidene]-2-hydroxycyclohexa-2,5-dien-1-one] stands 5.00.

One may read the pIC50 as −log10 of the IC50, conventionally taken in molar units.
